Test results published in US12357654B2, “Application of glucan in preparation of drug” (Qingdao Conson Pharmaceutical Co., Ltd., priority 2019, dated 2025).

Experiments:
leukocytes = assay: Immune cell concentration by hematology analyzer, B16 model after radiotherapy; type: in vivo, C57BL/6J mice; settings: local radiotherapy 10 Gy, glucan by tail vein once a week, FIGS. 8-15
Description: A cell suspension of 3×10^5 mouse melanoma cell line B16 (presented by PerkinElmer) was injected subcutaneously into C57BL/6J mice (female, 6-8 weeks old, purchased from Jinan Pengyue Experimental Animal Company)(Overwijk & Restifo, 2001). About 5 days after tumor implantation, local radiotherapy (tumor injection area, 10 Gy) was applied. On day 6 and day 14, vehicle or β-1,3/1,6-glucan was administered (tail vein injection, once a week), and on day 17, after the animals were sacrificed, tumor weight was measured. Blood was taken from the heart after animal sacrificed, placed into EDTA-anticoagulation tubes. After mixing, 50 μl of whole blood was taken and the immune cell concentration was measured by a hematology analyzer.

[1] = test system: mouse melanoma cell line B16; assay: B16 syngeneic tumor model after local radiotherapy: tumor volume, tumor weight; type: in vivo, C57BL/6J mice; settings: local radiotherapy 10 Gy day 5; glucan by tail vein once a week (day 6, day 14); sacrificed day 17; FIGS. 5-7
Description: A cell suspension of 3×10^5 mouse melanoma cell line B16 (presented by PerkinElmer) was injected subcutaneously into C57BL/6J mice (female, 6-8 weeks old, purchased from Jinan Pengyue Experimental Animal Company)(Overwijk & Restifo, 2001). About 5 days after tumor implantation, local radiotherapy (tumor injection area, 10 Gy) was applied. On day 6 and day 14, vehicle or β-1,3/1,6-glucan was administered (tail vein injection, once a week), during this period, tumor volume and mouse body weight were measured, and on day 17, after the animals were sacrificed, tumor weight was measured.

[2] = test system: mouse melanoma cell line B16; assay: B16 syngeneic tumor model, β-1,3/1,6-glucan with anti-PD-1 antibody: tumor volume, tumor weight, body weight; type: in vivo
Description: (§1) A cell suspension of 3×10^5 mouse melanoma cell line B16 (presented by PerkinElmer) was injected subcutaneously into C57BL/6J mice (female, 6-8 weeks old, purchased from Jinan Pengyue Experimental Animal Company). The administration experiments were performed about 4 days after implantation when B16 tumors have grown to be palpable. Mice were divided into four groups and treated with vehicle or β-1,3/1,6-glucan (4 mg/kg, i.v., twice a week) alone, or in combination with anti-PD-1 antibody (anti-mouse PD-1 antibody purchased from BioxCell, 200 μg per mouse, i.v., once a week). Tumor volumes were evaluated and tumor weights were recorded. After sacrifice of mice, blood and tumor samples were collected for flow cytometric analysis.
(§2) Combination treatment also upregulates pro-inflammatory monocyte-derived macrophages (CD11b+Ly6Chi, FIG. 1E) in the peripheral blood. […] In addition, it was detected that the combination application of β-1,3/1,6-glucan and PD-1 antibodies enhances the percentage of CD4 and CD8 T cells in the blood and tumor (FIG. 2). It was shown that β-1,3/1,6-glucan and anti-PD-1 antibodies synergistically increase tumor infiltration of pro-inflammatory macrophages, decrease the percentage of immunosuppressive TAM, and increase the ratio of acquired immune cells T and B cells, resulting in building up a more pro-inflammatory and anti-tumoral tumor microenvironment.

[3] = test system: lymphocytes in peripheral blood; assay: Relative lymphocyte concentration in peripheral blood by FACS, B16 model with anti-PD-1 antibody; type: in vivo, C57BL/6J mice; settings: 8 mg/kg β-1,3/1,6-glucan combined with PD-1 antibody, versus PD-1 antibody alone; FIG. 4
Description: A cell suspension of 3×10^5 mouse melanoma cell line B16 (presented by PerkinElmer) was injected subcutaneously into C57BL/6J mice (female, 6-8 weeks old, purchased from Jinan Pengyue Experimental Animal Company). The administration experiments were performed about 4 days after implantation when B16 tumors have grown to be palpable. […] Tumor volumes were evaluated and tumor weights were recorded. After sacrifice of mice, blood and tumor samples were collected for flow cytometric analysis.
The experimental method was the same as in Example 1. On day 14, blood was taken from the heart after animal sacrificed, and placed in EDTA-anticoagulation tubes. After mixing, 50 μl of whole blood was taken. 5 μl of GFP microspheres were added to each sample for erythrocyte lysis.
(§3) The single-cell suspensions were blocked with blocking buffer (20% FBS, 1:100 CD16/CD32 antibody and 1:100 rat IgG) for 20 min, and incubated and staining with the corresponding immune cell surface protein antibodies (CD4-BV510, CD8-PerCP-Cy5.5, CD19-APC, CD3-FITC) for 30 minutes at 4° C. Analysis of immune cell population ratios was performed by FACS Arial III (BD Biosciences). The specific procedure was delineating the cell population in the FSC/SSC quadrant, delineating the single cell population by FSC-H and FSC-A, and delineating the corresponding immune cells by immune cell surface markers, and calculating the relative immune cell concentration.

platelets = assay: Platelet concentration by hematology analyzer, B16 model with anti-PD-1 antibody; type: in vivo, C57BL/6J mice; settings: blood day 14, FIG. 3
[4] = test system: CD4, CD8 and CD19 cells in peripheral blood; assay: Relative CD4, CD8, CD19 cell concentration in peripheral blood by FACS, B16 model after radiotherapy; type: in vivo, C57BL/6J mice; settings: 8 mg/kg β-1,3/1,6-glucan after radiotherapy, FIG. 16
Description: On day 14, blood was taken from the heart after animals were sacrificed, and placed in EDTA-anticoagulation tubes. After mixing, 50 μl of whole blood was taken. 5 μl of GFP microspheres were added to each sample for erythrocyte lysis.
as §3, with “CD19-APC)” for “CD19-APC, CD3-FITC)”, “Anal” for “Arial”

leukocytes and platelets = assay: Leukocytes and platelets by hematology analyzer, B16 model with carboplatin chemotherapy; type: in vivo, C57BL/6J mice; settings: BG136 4 mg/kg tail vein with carboplatin 30 mg/kg i.p. twice a week; day 15; FIGS. 17-21
Description: (§4) A cell suspension of 3×10^5 mouse melanoma cell line B16 (presented by PerkinElmer) was injected subcutaneously into C57BL/6J mice (females, 6-8 weeks old, purchased from Jinan Panyue Experimental Animal Company) (Overwijk & Restifo, 2001). About 2 days after tumor implantation, carboplatin (30 mg/kg, twice a week) was injected intraperitoneally and BG136 (4 mg/kg) or lentinan LNT (2 mg/kg) was injected via the tail vein, and tumor volume were measured during administration, and on day 15, after animals were sacrificed, tumor weight was measured. Blood was taken from the heart after animals were sacrificed, placed in EDTA-anticoagulation tubes. After mixing, 50 μl of whole blood was taken and the immune cell concentration was measured by a hematology analyzer.

[5] = test system: immune cell subpopulations in blood and tumors; assay: Flow cytometric analysis of immune cell subpopulations in blood and tumors, B16 model with anti-PD-1 antibody; type: in vivo, C57BL/6J mice
Description: as §1
Blood samples were collected by cardiac puncture, collected into EDTA-anticoagulation tubes. 50 μl of whole blood was taken for blood analysis, 50 μl of whole blood was taken for erythrocyte lysis (erythrocyte lysis buffer, Meltenyi), and the remaining whole blood was centrifuged at 3500 rpm for 7 min and the plasma was taken and stored at −80° C. Spleens and thymus were weighed for recording. Subcutaneous tumors of mice, about 0.2-0.5 g of tumors tissues, were taken, and single cell suspensions from the tumor samples were obtained by Mouse Tumor Dissociation Kit (Meltenyi). The blood cells after erythrocyte lysis as well as the dissociated tumor cell suspensions were subjected to subsequent processing, as well as flow cytometric detection
The single-cell suspensions were blocked with blocking buffer (20% FBS, 1:100 CD16/CD32 antibody and 1:100 rat IgG) for 20 min, and incubated and stained with the corresponding immune cell surface protein antibodies (CD11 b-PE, CD4-BV510, CD8-PerCP-Cy5.5, CD19-APC, CD3-FITC, CD206-PE-Cy7, Ly6C-APC) for 30 minutes at 4° C. Analysis of immune cell population ratios was performed by FACS
Arial III (BD Biosciences). The specific procedure was delineating the cell population in the FSC/SSC quadrant, delineating single cell population by FSC-H and FSC-A, and delineating corresponding immune cells by immune cell surface markers, and calculating the cell ratio or relative concentration.
as §2

[6] = test system: mouse melanoma cell line B16; assay: B16 syngeneic tumor model with carboplatin chemotherapy: tumor volume, tumor weight; type: in vivo, C57BL/6J mice; settings: BG136 4 mg/kg tail vein with carboplatin 30 mg/kg i.p. twice a week; sacrificed day 15; FIGS. 17-21
Description: as §4

[7] = combination with PD-1 antibody, FIG. 2
[8] = combination with anti-PD-1 antibody, flow cytometry, FIG. 1D
[9] = combination with anti-PD-1 antibody, within the tumor, FIG. 1F

β-1,3/1,6-glucan
concentration of immune cells in blood after radiotherapy (leukocytes): increasing the concentration of immune cells
anti-tumor effect in combination with radiotherapy (tumor volume, tumor weight) [1]: enhances the anti-tumor effect of radiotherapy
body weight and death of mice during treatment ([2]; combination of β-1,3/1,6-glucan 4 mg/kg and anti-PD-1 antibody 200 μg/mouse, FIG. 1C): no significant changes
tumor growth inhibition, combination versus single treatment ([2]; β-1,3/1,6-glucan 4 mg/kg i.v. twice a week combined with anti-PD-1 antibody 200 μg/mouse i.v. once a week, FIG. 1A, 1B): more effectively inhibits tumor growth than single treatment
anti-PD-1 antibody-induced tumor regression ([2]; β-1,3/1,6-glucan 4 mg/kg i.v. twice a week combined with anti-PD-1 antibody 200 μg/mouse i.v. once a week, sacrificed day 14, FIG. 1A, 1B): enhances anti-PD-1 antibody-induced tumor regression
relative concentration of CD3 in blood [3]: further increase
relative concentration of CD4 in blood [3]: further increase
relative concentration of CD8 in blood [3]: further increase
relative concentration of CD19 in blood [3]: further increase
platelet concentration (platelets; single agent alone): does not affect
platelet concentration, platelet-lowering side effect of PD-1 antibody (platelets; β-1,3/1,6-glucan in combination with PD-1 antibody): reverses the platelet-lowering side effect
cell concentration of CD4 after radiotherapy [4]: increases
cell concentration of CD8 after radiotherapy [4]: increases
cell concentration of CD19 after radiotherapy [4]: increases
decrease in platelets after carboplatin administration (leukocytes and platelets): reverses
immune response / immunosuppression after carboplatin administration (immune cell concentration) (leukocytes and platelets): reverses the immunosuppression
percentage of immunosuppressive tumor-associated macrophages TAM (CD11b+CD206+) ([5]; combination treatment compared with anti-PD-1 antibody alone, within the tumor, FIG. 1G): reduced
percentage of CD4 T cells in the blood and tumor [5, 7]: enhances
percentage of CD8 T cells in the blood and tumor [5, 7]: enhances
pro-inflammatory monocyte-derived macrophages (CD11b+Ly6Chi) in the peripheral blood ([5]; combination with anti-PD-1 antibody, FIG. 1E): upregulates
percentage of CD11b+ cells in the blood [5, 8]: decreases
percentage of CD19+ cells in the blood [5, 8]: increases
tumor infiltration of myeloid cells (CD11b+) [5, 9]: more infiltration
tumor infiltration of pro-inflammatory macrophages (CD11b+Ly6Chi) [5, 9]: more infiltration
tumor suppressive effect in combination with carboplatin [6]: enhances the tumor suppressive effect of carboplatin
